Experimental data taken from ChEMBL document CHEMBL4346755, “Discovery and optimization of pyridyl-cycloalkyl-carboxylic acids as inhibitors of microsomal prostaglandin E synthase-1 for the treatment of endometriosis” (Bioorg Med Chem Lett, 2019).
One block for each compound: values may come before it. The source made the active and inactive calls. No cut-off for these calls is given here.

How the values were obtained:
[1] = Oral bioavailability in Wistar rat at 0.5 to 1 mg/kg measured upto 24 hrs by LC-MS/MS; type: ADME, organism-based; conditions: in vivo
[2] = Apparent permeability across apical to basolateral side in human Caco2 cells measured at 2 uM incubated for 2 hrs by LC/MS/MS analysis; type: ADME, cell-based; conditions: Caco-2
Prostaglandin E synthase [3] = molecular target: T1, Prostaglandin E synthase (Homo sapiens, UniProt O14684); assay: Inhibition of human recombinant FLAG-tagged PTGES expressed in baculovirus infected Hi-5 insect cells using prostaglandin H2 as substrate preincubated for 20 mins followed by substrate addition and incubated for 60 sec by TR-FRET assay
T1 sequence (O14684 whole entry): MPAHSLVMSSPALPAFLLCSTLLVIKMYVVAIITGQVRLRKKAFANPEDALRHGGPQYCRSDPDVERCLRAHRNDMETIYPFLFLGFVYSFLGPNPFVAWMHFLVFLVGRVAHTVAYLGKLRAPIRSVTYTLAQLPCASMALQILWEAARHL

[4] = Volume of distribution at steady state in Wistar rat blood at 0.5 to 1 mg/kg, […] 0.5 to 10 mg/kg, ig measured upto 24 hrs by LC-MS/MS; type: ADME, organism-based; conditions: in vivo
Mus musculus [5] = assay: Antinociceptive activity in C57BL/6 mouse model of complete Freund's adjuvant-induced inflammatory pain assessed as reduction in pain-related behavior at 30 to 100 mg/kg, po administered after 2 days of CFA induction and measured after 1 hr by using Plexiglas chamber; type: functional, organism-based
Rattus norvegicus [6] = assay: Antihyperalgesia activity in Sprague-Dawley rat endometriosis model assessed as decrease in proliferation of lesions by measuring expression of Ki67 at 75 mg/kg, po bid administered for 3 to 5 weeks of post surgery by RT-PCR analysis; type: functional, organism-based
[7] = Ratio of unbound drug level in CFA-induced mouse to IC50 for mouse recombinant FLAG-tagged PTGES inhibition; type: ADME; conditions: in vivo
[8] = Total blood clearance in Wistar rat blood at 0.5 to 1 mg/kg, […] 0.5 to 10 mg/kg, ig measured upto 24 hrs by LC-MS/MS; type: ADME, organism-based; conditions: whole blood
[9] = Inhibition of rat recombinant FLAG-tagged PTGES expressed in baculovirus infected Hi-5 insect cells using prostaglandin H2 as substrate incubated for 20 mins followed by substrate addition and incubated for 60 sec by TR-FRET assay
[10] = Half life in Wistar rat blood at 0.5 to 1 mg/kg, […] 0.5 to 10 mg/kg, ig LC-MS/MS; type: ADME, organism-based; conditions: whole blood
Rattus norvegicus [11] = assay: Antihyperalgesia activity in Sprague-Dawley rat endometriosis model assessed as viscero-motor response at 75 mg/kg, po bid administered for 3 to 5 weeks of post surgery by EMG method; type: functional, organism-based
[12] = Efflux ratio of apparent permeability from basolateral to apical over apical to basolateral side in human Caco2 cells at 2 uM incubated for 2 hrs by LC/MS/MS analysis; type: ADME, cell-based; conditions: Caco-2
Rattus norvegicus [13] = assay: Antihyperalgesia activity in Sprague-Dawley rat endometriosis model assessed as viscero-motor response at 75 mg/kg, po bid administered for 3 to 5 weeks of post surgery and measured after 1 week by EMG method; type: functional, organism-based
[14] = Hepatic extraction ratio in Han Wistar rat liver microsomes at 1 uM measured upto 90 mins by LC-MS/MS; type: ADME, Microsome; conditions: read-out: ERH
Mus musculus [15] = assay: Antinociceptive activity in C57BL/6 mouse model of complete Freund's adjuvant-induced inflammatory pain assessed as inhibition of PGE2 production at 30 to 100 mg/kg, po administered after 2 days of CFA induction and measured after 1 hr by ELISA; type: functional, organism-based
Prostaglandin E synthase [16] = molecular target: T2, Prostaglandin E synthase (Mus musculus, UniProt Q9JM51); assay: Inhibition of mouse recombinant FLAG-tagged PTGES expressed in baculovirus infected Hi-5 insect cells using prostaglandin H2 as substrate incubated for 20 mins followed by substrate addition and incubated for 60 sec by TR-FRET assay
T2 sequence (Q9JM51 whole entry): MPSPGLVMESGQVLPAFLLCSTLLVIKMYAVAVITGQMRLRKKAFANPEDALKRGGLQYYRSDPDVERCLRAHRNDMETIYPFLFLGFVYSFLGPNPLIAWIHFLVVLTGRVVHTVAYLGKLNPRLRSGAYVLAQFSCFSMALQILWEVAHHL

Mus musculus [17] = assay: Antinociceptive activity in C57BL/6 mouse model of complete Freund's adjuvant-induced inflammatory pain assessed as inhibition of PGE2 production at 100 mg/kg, po administered after 2 days of CFA induction and measured after 1 hr by ELISA; type: functional, organism-based
[18] = Selectivity ratio of IC50 for mouse recombinant FLAG-tagged PTGES to human recombinant FLAG-tagged PTGES expressed in baculovirus infected Hi-5 insect cells using prostaglandin H2 as substrate preincubated for 20 mins followed by substrate addition and incubated for 60 sec by TR-FRET assay

bioavailability [1]: 8%
Papp A→B at 2 h, 2 µM [2]: 2.2 nm/s
Compound: Cc1c(NC(=O)[C@@H](c2ccc(-c3cncc(Cl)c3)cc2)C2CCCC2)cccc1OCC(=O)O

IC50 (Prostaglandin E synthase [3]): 2.33 µM
Compound: Cc1c(CCC(=O)O)cccc1NC(=O)C(c1ccc(-c2cncc(Cl)c2)cn1)C1CCCC1 (stereo not given)

IC50 (Prostaglandin E synthase [3]): 5.86 µM
Compound: Cc1c(CCC(=O)O)cccc1NC(=O)C(c1cccc(-c2ccccc2)c1)C1CCCC1 (stereo not given)

Vdss [4]: 0.9 L/kg
bioavailability [1]: 98%
Papp A→B at 2 h, 2 µM [2]: 69 nm/s
Ratio [7]: 3
CL/F [8]: 0.3 L/h/kg
half-life [10]: 4.3 h
efflux ratio at 2 h, 2 µM [12]: 2.9
hepatic extraction ratio at […], 1 µM [14]: 0.02
IC50 (Prostaglandin E synthase [16]): 0.765 µM
Compound: Cc1c(CCC(=O)O)cccc1NC(=O)[C@@H](c1ccc(-c2cncc(Cl)c2)cc1)C1CCCC1
Activity (Mus musculus [5]): Active
Activity (Rattus norvegicus [6]): Active
IC50 [9]: 1.27 µM
Activity (Rattus norvegicus [11]): Active
Activity (Rattus norvegicus [13]): Active
Activity (Mus musculus [15]): Active

Compound: CC(C)Cc1ccc(C(C)C(=O)O)cc1 (stereo not given)
Activity (Mus musculus [17]): Active

IC50 (Prostaglandin E synthase [16]): 0.339 µM
Compound: Cc1c(NC(=O)[C@@H](c2ccc(-c3cncc(Cl)c3)cc2)C2CCCC2)cccc1[C@H](C)CC(=O)O
IC50 [9]: 0.895 µM

IC50 (Prostaglandin E synthase [3]): > 20 µM
Compound: Cc1c(CCC(=O)O)cccc1N(C)C(=O)C(c1ccc(-c2cncc(Cl)c2)cc1)C1CCCC1 (stereo not given)

IC50 (Prostaglandin E synthase [3]): > 20 µM
Compound: Cc1c(CCC(=O)O)cccc1C(=O)NC(c1ccc(-c2cncc(Cl)c2)cc1)C1CCCC1 (stereo not given)

IC50 (Prostaglandin E synthase [16]): 0.084 µM
Compound: CC[C@@H](CC(=O)O)c1cccc(NC(=O)C(c2ccc(-c3cncc(CC(C)C)c3)cc2)C2CCCC2)c1C (stereo not given in full)
IC50 [9]: 0.162 µM

Papp A→B at 2 h, 2 µM [2]: 36 nm/s
Compound: Cc1c(CCC(=O)O)cccc1NC(=O)[C@@H](c1ccc(-c2cccnc2)cc1)C1CCCC1

IC50 (Prostaglandin E synthase [3]): > 20 µM
Compound: Cc1c(CCC(=O)O)cccc1NC(=O)C(c1ccc(-c2ccccn2)cc1)C1CCCC1 (stereo not given)

IC50 (Prostaglandin E synthase [3]): > 20 µM
Compound: O=C(O)CCc1ccc(NC(=O)C(c2ccc(-c3cncc(Cl)c3)cc2)C2CCCC2)cc1 (stereo not given)

hepatic extraction ratio at […], 1 µM [14]: 0.44
IC50 (Prostaglandin E synthase [16]): 0.203 µM
Compound: CCc1cncc(-c2ccc(C(C(=O)Nc3cccc([C@@H](CC)CC(=O)O)c3C)C3CCCC3)cc2)c1 (stereo not given in full)
IC50 [9]: 0.19 µM

IC50 (Prostaglandin E synthase [3]): > 20 µM
Compound: Cc1c(CCC(=O)O)cccc1NC(=O)C(c1cccc(-c2cccnc2)c1)C1CCCC1 (stereo not given)

IC50 (Prostaglandin E synthase [3]): > 20 µM
Compound: Cc1c(CCC(=O)O)cccc1NC(=O)C(c1ccc(-c2cncc(Cl)c2)cc1)C1CCN(C)C1=O (stereo not given)

bioavailability [1]: 72%
Papp A→B at 2 h, 2 µM [2]: 59 nm/s
Compound: Cc1c(CCC(=O)O)cccc1NC(=O)[C@@H](c1ccc(-c2cncc(Cl)c2)c(F)c1)C1CCCC1

IC50 (Prostaglandin E synthase [16]): 0.818 µM
Compound: Cc1cncc(-c2ccc(C(C(=O)Nc3cccc(CCC(=O)O)c3C)C3CCCC3)cc2)c1 (stereo not given)
IC50 [9]: 2.59 µM

IC50 (Prostaglandin E synthase [3]): 9.26 µM
Compound: Cc1c(CCC(=O)O)cccc1NC(=O)C(c1ccc(-c2ccncc2)cc1)C1CCCC1 (stereo not given)

IC50 (Prostaglandin E synthase [16]): 0.191 µM
Compound: Cc1c(CCC(=O)O)cccc1NC(=O)C(c1ccc(-c2cncc(CC(C)C)c2)cc1)C1CCCC1 (stereo not given)

IC50 (Prostaglandin E synthase [3]): 0.152 µM
Compound: Cc1c(CCc2nnn[nH]2)cccc1NC(=O)C(c1ccc(-c2cncc(Cl)c2)cc1)C1CCCC1 (stereo not given)

IC50 (Prostaglandin E synthase [16]): 0.584 µM
Compound: Cc1c(NC(=O)[C@@H](c2ccc(-c3cncc(Cl)c3)cc2)C2CCCC2)cccc1[C@@H](C)CC(=O)O
IC50 [9]: 1.36 µM

IC50 (Prostaglandin E synthase [3]): 0.276 µM
Compound: Cc1c(CCC(=O)O)cccc1NC(=O)C(c1ccc(-c2cccc(Cl)c2)cc1)C1CCCC1 (stereo not given)

IC50 (Prostaglandin E synthase [3]): > 20 µM
Compound: Cc1ncccc1-c1ccc(C(C(=O)Nc2cccc(CCC(=O)O)c2C)C2CCCC2)cc1 (stereo not given)

IC50 (Prostaglandin E synthase [16]): 3.08 µM
Compound: Cc1c(NC(=O)[C@H](c2ccc(-c3cncc(Cl)c3)cc2)C2CCCC2)cccc1[C@H](C)CC(=O)O
IC50 [9]: 8.46 µM

bioavailability [1]: 73%
Papp A→B at 2 h, 2 µM [2]: 80 nm/s
Compound: Cc1c(CCC(=O)O)cccc1NC(=O)[C@@H](c1ccc(-c2cncc(C(F)(F)F)c2)cc1)C1CCCC1

IC50 (Prostaglandin E synthase [16]): 12.6 µM
Compound: Cc1c(NC(=O)[C@H](c2ccc(-c3cncc(Cl)c3)cc2)C2CCCC2)cccc1[C@@H](C)CC(=O)O
IC50 [9]: 17.7 µM

Compound: Cc1ccc(-c2ccc(C(C(=O)Nc3cccc(CCC(=O)O)c3C)C3CCCC3)cc2)cn1 (stereo not given)
Ratio IC50 [18]: 5

IC50 (Prostaglandin E synthase [3]): 0.327 µM
Compound: Cc1c(CCC(=O)O)cccc1NC(=O)C(c1ccc(-c2cncc(Cl)c2)nc1)C1CCCC1 (stereo not given)

IC50 (Prostaglandin E synthase [3]): > 20 µM
Compound: O=C(O)CCc1cccc(NC(=O)C(c2ccc(-c3cncc(Cl)c3)cc2)C2CCCC2)c1OC(F)(F)F (stereo not given)

IC50 (Prostaglandin E synthase [3]): 4.49 µM
Compound: Cc1c(CCC(=O)O)cccc1NC(=O)C(c1ccccc1)c1ccc(-c2cncc(Cl)c2)cc1 (stereo not given)
